Assays:
[1] = Determination of acetaldehyde and formaldehyde (HPLC, 2,4-DNPH derivatives); assay type: physicochemical; details: Example 5: 1.5% glucose solution, sodium bisulphite 0, 0.5, 1 mM added before or after heat sterilisation 121° C. 1 hour
Experimental: Determination of acetaldehyde and formaldehyde: The samples for the determination of acetaldehyde were diluted 20 times to a final volume of 4 ml, prior to analysis. Acetaldehyde was prepared as hydrazone derivatives using 2,4-DNPH as derivative reagent. The standards were prepared in range 1.1-11.4 μM acetaldehyde, and 1.7-16.7 μM formaldehyde. Standards and samples were prepared by adding 2 ml 0.08% (weight/volume) 2,4-DNPH to 4 ml of each sample. The sample were concentrated on a solid phase extraction C18 column (Bond Elut LRC 200 mg/3 ml) and after rinsing with water, eluted with 1.6 ml acetonitrile. The analytical column was a Supelco C18 column (5 μm, 15 cm×4,6 mm). The elution of the substances was performed at constant flow of 1.7 ml/min by using a linear gradient of acetonitrile/water. The percentage acetonitrile/water (volume/volume) was initially 35/65 and at the gradient stop 12 minutes later 80/20. The wavelenght was set at 240 nm and the injected volume was 20 μl. The limit of quantification was for acetaldehyde. 1.1 μM. And for formaldehyde 1.7 μM.

[2] = system: mouse fibroblasts cells L-929; assay: In vitro assay for cytotoxicity (inhibition of cell growth, ICG); assay type: cell-based
Experimental: Medical solutions used for peritoneal dialysis were mixed with one part cell growth medium and 10% (volume/volume) fetal calf serum was added (Wieslander et al., 1991, Kidney Int. 40:77-79). Basal cytotoxicity of medical solution used for peritoneal dialysis were determined on mouse fibroblasts cells L-929 (CCL-1; ATTC, Rockville, Md., USA) as described earlier (Wieslander et al. 1993, Advances in Peritoneal Dialys, 9:31-35) and expressed as inhibition of cellgrowth (ICG).

O=S([O-])O.[Na+] [sodium bisulphite]
level of acetaldehyde in sterilised solution [1]: decreased levels
level of formaldehyde in sterilised solution [1]: decreased levels
inhibition of cell growth (ICG) ([2]; Example 3: bisulphite in glucose compartment, 0-0.5 mM in final solution, 4% glucose, sterilised 121° C. 1 hour, mixed post sterilisation): decrease of the ICG value
inhibition of cell growth (ICG) ([2]; Example 4: sulphite in electrolyte compartment, concentrations in final solution as in example 3, 4% glucose, sterilised 121° C. 1 hour): decrease of the ICG value
inhibition of cell growth (ICG) ([2]; Example 5: 1.5% glucose solution, sodium bisulphite 0, 0.5, 1 mM added before or after heat sterilisation 121° C. 1 hour): decrease of the ICG value

— US20030159953A1, “Carbohydrate medical solution and sulphite stabilisator in a multiple compartment container and use thereof” (priority 2003, published 2003)
